pIC50: −log10 of the molar value. Where two headings read alike, the source gives them in different places.
Tests used:
[1] = test system: patients with schizophrenia; assay: PN004: safety; assay type: in vivo, human; details: Study PN004, subjects with schizophrenia, BID Days 1 to 28; CX-8998 N = 86, Olanzapine N = 47
Text: The primary efficacy endpoint was the mean change from baseline in the Positive and Negative Syndrome Scale (PANSS) total score at Week 4; secondary efficacy endpoints included responder rates on the PANSS total score at Week 4 and the change from baseline in the Clinical Global Impressions—Severity of Illness Scale at Week 4. Safety was monitored by adverse events, laboratory evaluations, ECGs, Holter monitoring, vital signs, the Simpson-Angus Scale, the Barnes Akathisia Rating Scale, the Abnormal Involuntary Movement Scale, and the Columbia Suicide-Severity Rating scale (C-SSRS).

GAERS rats = assay: GAERS rat model of absence epilepsy; details: 100 mg/kg oral
Cav3.3 = target: T1, Cav3.3 (Homo sapiens, UniProt Q9P0X4); assay: Cav3.3 FLIPR calcium influx assay (HEK 293 cells); assay type: cell-based; details: for pIC50: Cav3.3 FLIPR assay; for State dependence: hyperpolarized versus depolarized FLIPR potency
T1 construct: expressed in transfected cells; host or cells: HEK 293
T1 sequence (Q9P0X4 whole entry, species assumed): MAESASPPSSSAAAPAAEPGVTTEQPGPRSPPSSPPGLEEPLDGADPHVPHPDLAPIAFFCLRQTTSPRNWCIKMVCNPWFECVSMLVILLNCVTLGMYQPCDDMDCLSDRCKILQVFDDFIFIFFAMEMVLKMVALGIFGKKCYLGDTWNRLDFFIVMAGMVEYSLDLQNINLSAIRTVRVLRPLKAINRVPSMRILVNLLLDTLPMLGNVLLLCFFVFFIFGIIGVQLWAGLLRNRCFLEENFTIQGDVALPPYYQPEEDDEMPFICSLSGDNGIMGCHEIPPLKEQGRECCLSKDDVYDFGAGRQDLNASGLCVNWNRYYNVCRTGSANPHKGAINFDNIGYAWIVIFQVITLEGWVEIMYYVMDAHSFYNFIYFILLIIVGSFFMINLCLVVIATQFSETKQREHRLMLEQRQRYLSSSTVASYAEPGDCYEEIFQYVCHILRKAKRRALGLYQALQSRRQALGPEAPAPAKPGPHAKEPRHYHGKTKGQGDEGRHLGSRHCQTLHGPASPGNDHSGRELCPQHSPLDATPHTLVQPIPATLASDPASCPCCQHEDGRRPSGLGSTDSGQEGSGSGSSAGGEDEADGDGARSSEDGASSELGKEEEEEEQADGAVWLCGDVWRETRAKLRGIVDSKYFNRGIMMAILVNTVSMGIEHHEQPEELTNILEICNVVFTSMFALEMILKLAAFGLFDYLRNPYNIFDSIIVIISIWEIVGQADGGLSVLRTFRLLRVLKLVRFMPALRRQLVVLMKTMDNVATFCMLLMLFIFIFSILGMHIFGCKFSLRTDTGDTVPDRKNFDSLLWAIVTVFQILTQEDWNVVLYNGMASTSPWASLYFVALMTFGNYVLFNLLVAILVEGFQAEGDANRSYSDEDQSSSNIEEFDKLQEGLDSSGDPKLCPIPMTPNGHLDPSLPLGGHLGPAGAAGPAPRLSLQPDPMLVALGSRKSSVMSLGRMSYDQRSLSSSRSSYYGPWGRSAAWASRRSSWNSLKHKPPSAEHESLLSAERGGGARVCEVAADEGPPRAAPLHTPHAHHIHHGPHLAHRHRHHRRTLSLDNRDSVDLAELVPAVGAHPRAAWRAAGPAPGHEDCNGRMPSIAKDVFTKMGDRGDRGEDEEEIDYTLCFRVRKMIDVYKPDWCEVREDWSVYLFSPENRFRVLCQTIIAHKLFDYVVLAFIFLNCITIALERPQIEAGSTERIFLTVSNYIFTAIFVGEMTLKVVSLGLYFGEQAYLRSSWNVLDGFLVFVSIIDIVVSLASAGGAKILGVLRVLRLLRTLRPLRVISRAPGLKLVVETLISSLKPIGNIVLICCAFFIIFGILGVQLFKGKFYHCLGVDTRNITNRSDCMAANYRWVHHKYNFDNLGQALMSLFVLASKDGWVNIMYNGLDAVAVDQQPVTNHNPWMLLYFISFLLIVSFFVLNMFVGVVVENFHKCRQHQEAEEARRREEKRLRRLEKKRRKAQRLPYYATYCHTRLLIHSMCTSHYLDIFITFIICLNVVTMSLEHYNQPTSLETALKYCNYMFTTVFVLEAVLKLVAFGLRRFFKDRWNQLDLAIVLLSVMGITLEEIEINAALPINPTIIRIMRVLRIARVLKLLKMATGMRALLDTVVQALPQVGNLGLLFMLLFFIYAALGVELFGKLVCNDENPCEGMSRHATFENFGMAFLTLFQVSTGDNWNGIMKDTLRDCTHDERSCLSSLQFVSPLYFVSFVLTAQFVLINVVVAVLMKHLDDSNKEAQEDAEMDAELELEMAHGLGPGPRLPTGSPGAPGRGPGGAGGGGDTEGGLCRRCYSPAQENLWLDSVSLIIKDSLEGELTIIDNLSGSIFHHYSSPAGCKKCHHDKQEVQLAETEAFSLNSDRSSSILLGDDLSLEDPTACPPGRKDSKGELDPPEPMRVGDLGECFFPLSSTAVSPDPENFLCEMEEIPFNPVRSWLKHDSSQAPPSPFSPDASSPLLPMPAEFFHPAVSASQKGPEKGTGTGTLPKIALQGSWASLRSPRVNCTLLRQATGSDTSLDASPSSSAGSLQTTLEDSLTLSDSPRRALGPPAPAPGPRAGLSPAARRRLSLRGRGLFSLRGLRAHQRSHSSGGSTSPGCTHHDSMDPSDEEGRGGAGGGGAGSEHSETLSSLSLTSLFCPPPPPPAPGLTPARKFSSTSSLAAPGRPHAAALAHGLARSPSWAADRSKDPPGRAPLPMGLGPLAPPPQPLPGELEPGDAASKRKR

[2] = 90-day oral toxicology in Beagle dogs; details: Beagle, dog, in vivo, po
in vivo = details: rat, po
[3] = In vitro plasma protein binding, human; assay type: in vitro ADME; details: human plasma, read-out: Human-free fraction
[4] = T-CALM: plasma concentrations by 5-in-1 LC/MS/MS; assay type: in vivo, human; details: for Plasma concentration, mean: trough; for concentration at 4 h: human, plasma, oral, 4 hours post-dose
Method: Additionally, at Visit 4, a post-dose sample will be collected as close to 4 hours post-dose as possible, but within the window of 4-6 hours post-dose (i.e., a total of two PK samples are collected at Visit 4.)
Assay performances were satisfactory and met acceptance criteria for system performance suitability, quantitation range, calibration linearity, assay accuracy and precision, and assay recovery.

WAG/Rij rats = assay: WAG/Rij rat model of absence epilepsy; assay type: in vivo; details: 10 mg/kg oral
Text: Other T-type antagonists from structurally diverse series have shown similar efficacy in this model (Broicher, 2007; Blumenfeld, 2008; Broicher, 2008; Shipe, 2008; Yang, 2008; Uebele, 2009; Russo, 2010; Russo, 2011).
Data were scored with automated seizure analysis software, averaged, and normalized to enable treatment comparisons (FIG. 76)
Control animals received vehicle administrations. […] Source: Merck TTA Package Description (FIG. 79).

[5] = rodents; from literature; cited from earlier work
[6] = rodents; from literature; cited from earlier work; remark: listed apart in the source
Cav3 = details: from literature, cited from earlier work; for pIC50: read-out: Cav3 potency
[7] = Brain penetration in male rats; assay type: in vivo; details: rat, 25 mg/kg
[8] = Single-dose toxicokinetic study in dogs; assay type: in vivo; details: dog, plasma, po, 800 mg/kg
[9] = rodents; from literature; cited from earlier work; remark: listed apart in the source
harmaline-induced tremor = details: dose levels up to 10 mg/kg; cited from earlier work
[10] = depolarized, read-out: Depolarized FLIPR potency
[11] = hyperpolarized, read-out: Hyperpolarized FLIPR potency

| SMILES | pIC50 (Cav3.3; [10]) | pIC50 (Cav3.3; [11]) | State dependence (Cav3.3) [fold] | AUC ([2]; female, 10 mg/kg) [µM·h] | AUC ([2]; female, 30 mg/kg) [µM·h] | AUC ([2]; female, 100 mg/kg/day) [µM·h] | AUC ([2]; male, 10 mg/kg) [µM·h] | AUC ([2]; male, 30 mg/kg) [µM·h] | AUC ([2]; male, 100 mg/kg/day) [µM·h] | AUC (in vivo; female, 5 mg/kg) [µM·h] | AUC (in vivo; female, 15 mg/kg) [µM·h] | AUC (in vivo; female, 100 mg/kg) [µM·h] | AUC (in vivo; female, 300 mg/kg) [µM·h] | AUC (in vivo; male, 5 mg/kg) [µM·h] | AUC (in vivo; male, 15 mg/kg) [µM·h] | AUC (in vivo; male, 100 mg/kg) [µM·h] | AUC (in vivo; male, 300 mg/kg) [µM·h] | fraction unbound [3] | Plasma concentration, mean ([4]; Visit 2 (Day 8), 4 mg BID) [nM] | Plasma concentration, mean ([4]; Visit 3 (Day 15), 8 mg BID) [nM] | further results |
| --- | --- | --- | --- | --- | --- | --- | --- | --- | --- | --- | --- | --- | --- | --- | --- | --- | --- | --- | --- | --- | --- |
| Cc1cc2c(s1)Nc1ccccc1N=C2N1CCN(C)CC1 [olanzapine, reference compound] |  |  |  |  |  |  |  |  |  |  |  |  |  |  |  |  |  |  |  |  | Anxiety [1]: 0 (0.0); At least 1 adverse event [1]: 23 (48.9); Chronic pharyngitis [1]: 0 (0.0); Dizziness [1]: 1 (2.1); Headache [1]: 3 (6.4); Rhinopharyngitis [1]: 0 (0.0); Schizophrenia [1]: 1 (2.1); Sinus tachycardia [1]: 3 (6.4); Somnolence [1]: 3 (6.4) |
| CCC1(C)CC(=O)NC1=O (stereo not shown) [Ethosuximide, ethosuximide] |  |  |  |  |  |  |  |  |  |  |  |  |  |  |  |  |  |  |  |  | Number and frequency of seizures (GAERS rats): only partially suppressed |
| CC(CO)c1ccc(CC(=O)N[C@H](C)c2ccc(OCC(F)(F)F)cn2)cc1 (stereo partly shown) [M04] | 7.72 | 5.74 | 95 | 2.19 | 3.75 | 8.1 | 3.37 | 2.25 | 33.9 | 3.19 | 8.04 | 61.9 | 55.3 | 1.32 | 2.47 | 15.5 | 19.4 | 0.13 | 4.5 | 4.9 | Fold less potent than CX-8998 (Cav3.3): approximately 5 fold; Plasma concentration, mean ([4]; Visit 4 (Day 28), 10 mg BID): 5.6 nM; concentration at 4 h ([4]; Visit 4 (Day 28), 10 mg BID): 6.4 nM; Percent of inhibition (WAG/Rij rats): 60% |
| C[C@@H](NC(=O)Cc1ccc(C2CC2)cc1)c1ccc(OCC(F)(F)F)cn1 [TTA-A2] |  |  |  |  |  |  |  |  |  |  |  |  |  |  |  |  |  |  |  |  | Plasma-free fraction [5]: 0.6%; AUClast [6]: 30 µM·h; t½ [6]: 1.5 h; State dependency (Cav3): ≥40 fold; pIC50 (Cav3): 7.01 to 7.05 |
| CC(C(=O)O)c1ccc(CC(=O)N[C@H](C)c2ccc(OCC(F)(F)F)cn2)cc1 (stereo partly shown) [M03] | 6.02 | 5.48 | 3.5 | 8.4 | 15.4 | 17.2 | 10.5 | 12.3 | 79.6 | 9.85 | 19.7 | 159 | 169 | 23.9 | 34.9 | 181 | 213 | 0.21 | 11 | 16 | Kp at 2 h ([7]; brain and plasma, oral, read-out: Brain-to-plasma ratio): 0.01; Kp at 2 h ([7]; brain, po, read-out: Brain: Plasma Ratio): 0.01; Potency and state dependence compared with CX-8998 (Cav3.3): significantly less potent and state dependent; Plasma concentration, mean ([4]; Visit 4 (Day 28), 10 mg BID): 20 nM; concentration at 4 h ([4]; Visit 4 (Day 28), 10 mg BID): 22 nM; Tmax ([8]; female): 8 h; Tmax ([8]; male): 24 h; Percent of inhibition (WAG/Rij rats): 71% |
| CC1(C)C[C@@H](CN2CCC(F)(CNC(=O)c3cc(Cl)cc(Cl)c3)CC2)CCO1 [TTA-P2] |  |  |  |  |  |  |  |  |  |  |  |  |  |  |  |  |  |  |  |  | Plasma-free fraction [5]: 5.7%; AUClast [6]: 1.94 µM·h; Cmax [6]: 480 nM; Tmax [6]: 0.7 h; t½ [6]: 1.8 h; State dependency (Cav3): 1 fold; pIC50 (Cav3): 6.71 to 7.08; Brain/plasma ratio [9]: 6.0; Harmaline-induced tremor (harmaline-induced tremor): normalized both physiologic tremor prior to harmaline administration and harmaline-induced tremor in a dose-dependent fashion |

Reference: US11311522B1 (Cavion, Inc., priority 2018, dated 2022)
